Results from ChEMBL document CHEMBL2331144, “Synthesis and anticancer activity of analogues of phenstatin, with a phenothiazine A-ring, as a new class of microtubule-targeting agents” (Bioorg Med Chem Lett, 2013).

Tests used:
SR = assay: Growth inhibition of human SR cells after 48 hrs by sulforhodamine B assay; format: functional
MDA-MB-468 = assay: Growth inhibition of human MDA-MB-468 cells after 48 hrs by sulforhodamine B assay; format: functional; conditions: MDA-MB-468, 48 h
RXF 393 = assay: Growth inhibition of human RXF393 cells after 48 hrs by sulforhodamine B assay; format: functional; conditions: RXF 393, 48 h
[1] = Growth inhibition of human HCC2998 cells after 48 hrs by sulforhodamine B assay; format: functional; conditions: HCC 2998, 48 h
UACC-257 = assay: Growth inhibition of human UACC257 cells after 48 hrs by sulforhodamine B assay; format: functional; conditions: UACC-257, 48 h
BT-549 = assay: Growth inhibition of human BT549 cells after 48 hrs by sulforhodamine B assay; format: functional; conditions: BT-549, 48 h
HL-60(TB) = assay: Growth inhibition of human HL-60(TB) cells after 48 hrs by sulforhodamine B assay; format: functional; conditions: HL-60, 48 h
COLO 205 = assay: Growth inhibition of human COLO205 cells after 48 hrs by sulforhodamine B assay; format: functional; conditions: COLO 205, 48 h
UACC-62 = assay: Growth inhibition of human UACC62 cells after 48 hrs by sulforhodamine B assay; format: functional; conditions: UACC-62, 48 h
SW-620 = assay: Growth inhibition of human SW620 cells after 48 hrs by sulforhodamine B assay; format: functional; conditions: SW-620, 48 h
A498 = assay: Growth inhibition of human A498 cells after 48 hrs by sulforhodamine B assay; format: functional; conditions: A498, 48 h
[2] = Growth inhibition of human NCI-ADR-RES cells after 48 hrs by sulforhodamine B assay; format: functional
HCT-116 = assay: Growth inhibition of human HCT116 cells after 48 hrs by sulforhodamine B assay; format: functional; conditions: HCT-116, 48 h
OVCAR-4 = assay: Growth inhibition of human OVCAR4 cells after 48 hrs by sulforhodamine B assay; format: functional; conditions: OVCAR-4, 48 h
PC-3 = assay: Growth inhibition of human PC3 cells after 48 hrs by sulforhodamine B assay; format: functional; conditions: PC-3, 48 h
MCF7 = assay: Growth inhibition of human MCF7 cells after 48 hrs by sulforhodamine B assay; format: functional; conditions: MCF7, 48 h
SN12C = assay: Growth inhibition of human SN12C cells after 48 hrs by sulforhodamine B assay; format: functional
M14 = assay: Growth inhibition of human M14 cells after 48 hrs by sulforhodamine B assay; format: functional; conditions: M14, 48 h
MDA-MB-435 = assay: Growth inhibition of human MDA-MB-435 cells after 48 hrs by sulforhodamine B assay; format: functional; conditions: MDA-MB-435, 48 h
HOP-62 = assay: Growth inhibition of human HOP62 cells after 48 hrs by sulforhodamine B assay; format: functional; conditions: HOP-62, 48 h
IGROV-1 = assay: Growth inhibition of human IGROV1 cells after 48 hrs by sulforhodamine B assay; format: functional; conditions: IGROV-1, 48 h
OVCAR-8 = assay: Growth inhibition of human OVCAR8 cells after 48 hrs by sulforhodamine B assay; format: functional; conditions: OVCAR-8, 48 h
SNB-75 = assay: Growth inhibition of human SNB75 cells after 48 hrs by sulforhodamine B assay; format: functional; conditions: SNB-75, 48 h
HOP-92 = assay: Growth inhibition of human HOP92 cells after 48 hrs by sulforhodamine B assay; format: functional; conditions: HOP-92, 48 h
HT-29 = assay: Growth inhibition of human HT-29 cells after 48 hrs by sulforhodamine B assay; format: functional; conditions: HT-29, 48 h
NCI-H460 = assay: Growth inhibition of human NCI-H460 cells after 48 hrs by sulforhodamine B assay; format: functional; conditions: NCI-H460, 48 h
[3] = Inhibition of sheep brain tubulin polymerization using DAPI by fluorimetry; design: species or system Ovis aries
NCI-H23 = assay: Growth inhibition of human NCI-H23 cells after 48 hrs by sulforhodamine B assay; format: functional; conditions: NCI-H23, 48 h
SK-MEL-2 = assay: Growth inhibition of human SK-MEL-2 cells after 48 hrs by sulforhodamine B assay; format: functional; conditions: SK-MEL-2, 48 h
LOX IMVI = assay: Growth inhibition of human LOXIMVI cells after 48 hrs by sulforhodamine B assay; format: functional
TK-10 = assay: Growth inhibition of human TK10 cells after 48 hrs by sulforhodamine B assay; format: functional; conditions: TK-10, 48 h
SF-295 = assay: Growth inhibition of human SF295 cells after 48 hrs by sulforhodamine B assay; format: functional; conditions: SF-295, 48 h
MDA-MB-231 = assay: Growth inhibition of human MDA-MB-231 cells after 48 hrs by sulforhodamine B assay; format: functional; conditions: MDA-MB-231, 48 h
KM12 = assay: Growth inhibition of human KM12 cells after 48 hrs by sulforhodamine B assay; format: functional; conditions: KM12, 48 h
OVCAR-3 = assay: Growth inhibition of human OVCAR3 cells after 48 hrs by sulforhodamine B assay; format: functional; conditions: OVCAR-3, 48 h
UO-31 = assay: Growth inhibition of human UO31 cells after 48 hrs by sulforhodamine B assay; format: functional; conditions: UO-31, 48 h
K562 = assay: Growth inhibition of human K562 cells after 48 hrs by sulforhodamine B assay; format: functional; conditions: K562, 48 h
SF-268 = assay: Growth inhibition of human SF268 cells after 48 hrs by sulforhodamine B assay; format: functional; conditions: SF-268, 48 h
SK-MEL-5 = assay: Growth inhibition of human SK-MEL-5 cells after 48 hrs by sulforhodamine B assay; format: functional; conditions: SK-MEL-5, 48 h
SK-OV-3 = assay: Growth inhibition of human SKOV3 cells after 48 hrs by sulforhodamine B assay; format: functional; conditions: SK-OV-3, 48 h
[4] = Growth inhibition of human Hs 578T cells after 48 hrs by sulforhodamine B assay; format: functional
CCRF-CEM = assay: Growth inhibition of human CCRF-CEM cells after 48 hrs by sulforhodamine B assay; format: functional
NCI-H522 = assay: Growth inhibition of human NCI-H522 cells after 48 hrs by sulforhodamine B assay; format: functional; conditions: NCI-H522, 48 h
A549 = assay: Growth inhibition of human A549/ATCC cells after 48 hrs by sulforhodamine B assay; format: functional; conditions: A549, 48 h
786-0 = assay: Growth inhibition of human 786-0 cells after 48 hrs by sulforhodamine B assay; format: functional; conditions: 786-0, 48 h
SF-539 = assay: Growth inhibition of human SF539 cells after 48 hrs by sulforhodamine B assay; format: functional; conditions: SF-539, 48 h
Ovis aries = organism: Ovis aries; assay: Inhibition of sheep brain tubulin polymerization at 100 uM using DAPI by fluorimetry
ACHN = assay: Growth inhibition of human ACHN cells after 48 hrs by sulforhodamine B assay; format: functional
SK-MEL-28 = assay: Growth inhibition of human SK-MEL-28 cells after 48 hrs by sulforhodamine B assay; format: functional; conditions: SK-MEL-28, 48 h
CAKI-1 = assay: Growth inhibition of human CAKI-1 cells after 48 hrs by sulforhodamine B assay; format: functional; conditions: CAKI-1, 48 h
HCT-15 = assay: Growth inhibition of human HCT15 cells after 48 hrs by sulforhodamine B assay; format: functional; conditions: HCT-15, 48 h
DU-145 = assay: Growth inhibition of human DU145 cells after 48 hrs by sulforhodamine B assay; format: functional; conditions: DU-145, 48 h
RPMI-8226 = assay: Growth inhibition of human RPMI8226 cells after 48 hrs by sulforhodamine B assay; format: functional; conditions: RPMI-8226, 48 h
MOLT-4 = assay: Growth inhibition of human MOLT4 cells after 48 hrs by sulforhodamine B assay; format: functional; conditions: MOLT-4, 48 h
Malme-3M = assay: Growth inhibition of human MALME-3M cells after 48 hrs by sulforhodamine B assay; format: functional
OVCAR-5 = assay: Growth inhibition of human OVCAR5 cells after 48 hrs by sulforhodamine B assay; format: functional; conditions: OVCAR-5, 48 h
T47D = assay: Growth inhibition of human T47D cells after 48 hrs by sulforhodamine B assay; format: functional

COc1ccc(C(=O)N2c3ccccc3Sc3ccccc32)cc1N
GI50 (SR): 0.03 µM
GI50 (MDA-MB-468): 0.05 µM
GI50 (RXF 393): 0.13 µM
GI50 [1]: 0.683 µM
GI50 (UACC-257): 1.94 µM
GI50 (BT-549): 0.877 µM
GI50 (HL-60(TB)): 0.245 µM
GI50 (COLO 205): 0.193 µM
GI50 (UACC-62): 0.127 µM
GI50 (SW-620): 0.09 µM
GI50 (A498): 0.129 µM
GI50 [2]: 0.08 µM
GI50 (HCT-116): 0.166 µM
GI50 (OVCAR-4): 1.21 µM
GI50 (PC-3): 0.31 µM
GI50 (MCF7): 0.093 µM
GI50 (SN12C): 0.798 µM
GI50 (M14): 0.09 µM
GI50 (MDA-MB-435): 0.029 µM
GI50 (HOP-62): 0.226 µM
GI50 (IGROV-1): 0.721 µM
GI50 (OVCAR-8): 0.366 µM
GI50 (SNB-75): 0.257 µM
GI50 (HOP-92): 0.277 µM
GI50 (HT-29): 0.151 µM
GI50 (NCI-H460): 0.289 µM
IC50 [3]: 11.8 µM
GI50 (NCI-H23): 0.437 µM
GI50 (SK-MEL-2): 0.134 µM
GI50 (LOX IMVI): 0.881 µM
GI50 (TK-10): 0.575 µM
GI50 (SF-295): 0.071 µM
GI50 (MDA-MB-231): 0.31 µM
GI50 (KM12): 0.097 µM
GI50 (OVCAR-3): 0.101 µM
GI50 (UO-31): 0.65 µM
GI50 (K562): 0.04 µM
GI50 (SF-268): 0.958 µM
GI50 (SK-MEL-5): 0.053 µM
GI50 (SK-OV-3): 0.244 µM
GI50 [4]: 0.424 µM
GI50 (CCRF-CEM): 0.268 µM
GI50 (NCI-H522): 0.035 µM
GI50 (A549): 0.187 µM
GI50 (786-0): 0.524 µM
GI50 (SF-539): 0.164 µM
inhibition (Ovis aries): 99%
GI50 (ACHN): 0.472 µM
GI50 (SK-MEL-28): 0.407 µM
GI50 (CAKI-1): 0.29 µM
GI50 (HCT-15): 0.073 µM
GI50 (DU-145): 0.291 µM
GI50 (RPMI-8226): 0.328 µM
GI50 (MOLT-4): 0.38 µM

CCOc1ccc(C(=O)N2c3ccccc3Sc3ccccc32)cc1Cl
GI50 (SR): 0.142 µM
GI50 (MDA-MB-468): 0.257 µM
GI50 (RXF 393): 0.236 µM
GI50 [1]: 2.7 µM
GI50 (UACC-257): 0.564 µM
GI50 (BT-549): 0.613 µM
GI50 (HL-60(TB)): 0.315 µM
GI50 (COLO 205): 0.354 µM
GI50 (UACC-62): 0.451 µM
GI50 (SW-620): 0.349 µM
GI50 (A498): 0.21 µM
GI50 [2]: 0.376 µM
GI50 (HCT-116): 0.457 µM
GI50 (OVCAR-4): 3.75 µM
GI50 (PC-3): 0.39 µM
GI50 (MCF7): 0.419 µM
GI50 (SN12C): 0.777 µM
GI50 (M14): 0.373 µM
GI50 (MDA-MB-435): 0.095 µM
GI50 (HOP-62): 0.512 µM
GI50 (IGROV-1): 1.02 µM
GI50 (OVCAR-8): 0.596 µM
GI50 (Malme-3M): 0.446 µM
GI50 (SNB-75): 0.283 µM
GI50 (HOP-92): 0.272 µM
GI50 (HT-29): 0.32 µM
GI50 (OVCAR-5): 0.527 µM
GI50 (NCI-H460): 0.368 µM
GI50 (NCI-H23): 0.999 µM
GI50 (SK-MEL-2): 0.395 µM
GI50 (LOX IMVI): 0.75 µM
GI50 (TK-10): 0.857 µM
GI50 (SF-295): 0.254 µM
GI50 (MDA-MB-231): 0.531 µM
GI50 (KM12): 0.426 µM
GI50 (OVCAR-3): 0.231 µM
GI50 (UO-31): 0.52 µM
GI50 (K562): 0.277 µM
GI50 (SF-268): 1.76 µM
GI50 (T47D): 0.466 µM
GI50 (SK-MEL-5): 0.333 µM
GI50 (SK-OV-3): 0.623 µM
GI50 [4]: 0.573 µM
GI50 (CCRF-CEM): 0.361 µM
GI50 (NCI-H522): 0.221 µM
GI50 (A549): 0.62 µM
GI50 (786-0): 0.481 µM
GI50 (SF-539): 0.239 µM
inhibition (Ovis aries): 48%
GI50 (ACHN): 0.447 µM
GI50 (SK-MEL-28): 0.817 µM
GI50 (CAKI-1): 0.457 µM
GI50 (HCT-15): 0.373 µM
GI50 (DU-145): 0.476 µM
GI50 (RPMI-8226): 0.424 µM
GI50 (MOLT-4): 0.408 µM

COc1ccc(C(=O)c2cc(OC)c(OC)c(OC)c2)cc1O [PHENSTATIN]
GI50 (A498): 0.38 µM
GI50 (MCF7): 0.437 µM
GI50 (NCI-H460): 0.006 µM
IC50 [3]: 3.43 µM
GI50 (SF-295): 0.052 µM
GI50 (OVCAR-3): 0.002 µM
inhibition (Ovis aries): 99%
GI50 (DU-145): 0.034 µM

COc1cc([C@@H]2c3cc4c(cc3C[C@H]3COC(=O)[C@@H]32)OCO4)cc(OC)c1OC [DESOXYPODOPHYLLOTOXIN]
IC50 [3]: 1.76 µM
inhibition (Ovis aries): 100%

C=C(c1ccc(OC)c(O)c1)c1cc(OC)c(OC)c(OC)c1
IC50 [3]: 1.5 µM
